Our source for the IC50 values is BindingDB's records for doi:10.1021/jm030317k (Astrazeneca, 2004).

Structures are written as SMILES. Where only a bound is given, the exact number is not on record here.

For assay [1], the target named is Fibroblast growth factor receptor 1 (Homo sapiens, UniProt P11362). Kind of assay: In Vitro Src Kinase Inhibition Test. From the text:
(§1) This assay determines the ability of test compounds to inhibit Src kinase activity that catalyzes the transfer of the terminal phosphate to the immobilized poly (Glu,Tyr) substrate detected using anti-phosphotyrosine monoclonal antibody conjugated to alkaline phosphatase. IC50 values for compound enzyme inhibition were obtained using KC3 Kineticalc software (Bio-Tek Instruments) following subtraction of the blank values.

Assay [2] concerns the target Vascular endothelial growth factor receptor 1 (Homo sapiens, UniProt P17948). Kind of assay: In Vitro Src Kinase Inhibition Test.
From the text: as §1

Assay [3] addresses Proto-oncogene tyrosine-protein kinase Src (Homo sapiens, UniProt P12931). Kind of assay: In Vitro Src Kinase Inhibition Test. The settings on record: pH 7.4; 22 °C.
From the text: as §1

Assay [4] deals with T1, Vascular endothelial growth factor receptor 2 (Homo sapiens, UniProt P35968). Description: VEGF-R Kinase Inhibition Assay. The settings on record: 25 °C. How it is done:
An ELISA assay was used to determine the ability of inhibitor to inhibit VEGF-RRTK activity. The compounds were incubated with enzyme 20 min at room temperature, with 2uM ATP in 96-well plates coated with a poly(Glu, Ala, Tyr) 6:3:1 random copolymer substrate. Phosphorylated tyrosine was then detected by sequential in cubation with anti-phosphotyrosine antibody. IC50 data were interpolated by nonlinear regression using Microcal Origin software.

The target of assay [5] is T1, Vascular endothelial growth factor receptor 2. Description: In Vitro Src Kinase Inhibition Test.
From the text: as §1

T1 sequence (P35968 whole entry): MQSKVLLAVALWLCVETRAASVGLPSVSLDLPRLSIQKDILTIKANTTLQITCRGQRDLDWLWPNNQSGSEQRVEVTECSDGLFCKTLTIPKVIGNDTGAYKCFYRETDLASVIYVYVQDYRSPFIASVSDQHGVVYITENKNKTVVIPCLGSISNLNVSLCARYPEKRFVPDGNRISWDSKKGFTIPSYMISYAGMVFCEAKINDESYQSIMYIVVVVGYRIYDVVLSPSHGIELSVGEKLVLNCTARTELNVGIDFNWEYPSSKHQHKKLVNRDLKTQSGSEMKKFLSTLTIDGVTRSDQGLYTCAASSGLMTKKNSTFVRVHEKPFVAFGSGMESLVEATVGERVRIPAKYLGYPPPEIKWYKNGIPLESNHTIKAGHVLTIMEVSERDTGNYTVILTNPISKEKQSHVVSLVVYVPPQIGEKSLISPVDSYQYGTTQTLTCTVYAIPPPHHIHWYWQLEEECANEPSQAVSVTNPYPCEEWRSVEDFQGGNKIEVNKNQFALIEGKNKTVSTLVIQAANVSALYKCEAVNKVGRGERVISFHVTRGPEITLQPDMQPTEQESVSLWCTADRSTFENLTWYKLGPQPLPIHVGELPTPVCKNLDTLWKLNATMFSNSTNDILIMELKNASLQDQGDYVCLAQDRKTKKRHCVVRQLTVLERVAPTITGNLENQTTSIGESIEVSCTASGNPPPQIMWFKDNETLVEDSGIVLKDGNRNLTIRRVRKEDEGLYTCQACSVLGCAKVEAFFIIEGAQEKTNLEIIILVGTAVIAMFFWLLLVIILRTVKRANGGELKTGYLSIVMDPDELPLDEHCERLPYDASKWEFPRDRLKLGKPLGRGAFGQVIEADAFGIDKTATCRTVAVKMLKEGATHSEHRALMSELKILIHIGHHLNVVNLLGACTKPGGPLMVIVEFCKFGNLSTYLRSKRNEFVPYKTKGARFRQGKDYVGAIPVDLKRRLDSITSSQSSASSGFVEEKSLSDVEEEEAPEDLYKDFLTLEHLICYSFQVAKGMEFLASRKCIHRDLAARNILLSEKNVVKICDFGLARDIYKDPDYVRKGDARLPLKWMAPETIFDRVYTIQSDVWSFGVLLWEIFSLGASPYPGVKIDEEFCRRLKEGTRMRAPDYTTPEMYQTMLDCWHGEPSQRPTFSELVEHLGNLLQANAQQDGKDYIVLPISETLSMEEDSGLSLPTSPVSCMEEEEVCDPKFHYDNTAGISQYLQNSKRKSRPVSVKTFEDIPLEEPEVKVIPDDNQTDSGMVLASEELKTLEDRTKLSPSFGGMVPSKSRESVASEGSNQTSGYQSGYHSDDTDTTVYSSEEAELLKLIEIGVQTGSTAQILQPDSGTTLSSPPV
Sequence of Proto-oncogene tyrosine-protein kinase Src (P12931 2-536 limits assumed): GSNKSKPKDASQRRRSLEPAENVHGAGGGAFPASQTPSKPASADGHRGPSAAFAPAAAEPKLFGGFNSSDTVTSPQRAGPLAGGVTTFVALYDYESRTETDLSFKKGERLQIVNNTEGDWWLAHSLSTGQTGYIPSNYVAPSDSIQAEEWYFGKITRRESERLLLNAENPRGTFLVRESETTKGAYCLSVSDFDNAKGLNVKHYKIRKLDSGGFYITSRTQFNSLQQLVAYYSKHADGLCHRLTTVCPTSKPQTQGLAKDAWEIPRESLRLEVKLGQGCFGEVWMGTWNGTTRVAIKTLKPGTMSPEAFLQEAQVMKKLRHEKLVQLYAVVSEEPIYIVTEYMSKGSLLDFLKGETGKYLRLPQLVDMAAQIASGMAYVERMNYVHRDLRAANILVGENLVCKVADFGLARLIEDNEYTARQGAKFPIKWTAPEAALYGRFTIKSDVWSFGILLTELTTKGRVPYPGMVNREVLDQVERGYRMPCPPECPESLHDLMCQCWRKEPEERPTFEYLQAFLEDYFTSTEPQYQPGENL
Sequence of Fibroblast growth factor receptor 1 (P11362 whole entry): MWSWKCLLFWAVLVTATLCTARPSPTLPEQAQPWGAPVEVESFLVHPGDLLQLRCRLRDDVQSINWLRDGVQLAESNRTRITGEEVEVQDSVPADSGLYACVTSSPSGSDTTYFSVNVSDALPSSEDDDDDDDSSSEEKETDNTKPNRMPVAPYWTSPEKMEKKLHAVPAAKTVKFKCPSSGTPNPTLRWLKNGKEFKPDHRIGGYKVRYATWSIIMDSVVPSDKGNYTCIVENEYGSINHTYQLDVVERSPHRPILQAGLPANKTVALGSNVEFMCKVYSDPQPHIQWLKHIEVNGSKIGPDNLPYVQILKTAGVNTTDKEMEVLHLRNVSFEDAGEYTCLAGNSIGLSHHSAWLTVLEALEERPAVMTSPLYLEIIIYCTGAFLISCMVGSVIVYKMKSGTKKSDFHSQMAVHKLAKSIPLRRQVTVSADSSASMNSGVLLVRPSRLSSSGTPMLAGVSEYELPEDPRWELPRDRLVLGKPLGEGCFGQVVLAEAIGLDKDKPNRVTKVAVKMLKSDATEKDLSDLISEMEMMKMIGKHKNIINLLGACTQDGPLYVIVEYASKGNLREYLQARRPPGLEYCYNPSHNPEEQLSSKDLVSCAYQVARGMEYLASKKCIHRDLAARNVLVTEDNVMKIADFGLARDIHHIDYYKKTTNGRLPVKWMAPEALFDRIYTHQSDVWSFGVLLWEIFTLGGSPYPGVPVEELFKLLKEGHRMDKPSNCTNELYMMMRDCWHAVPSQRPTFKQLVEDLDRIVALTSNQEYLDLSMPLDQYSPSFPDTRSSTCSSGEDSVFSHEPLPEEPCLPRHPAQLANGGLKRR
Sequence of Vascular endothelial growth factor receptor 1 (P17948 whole entry): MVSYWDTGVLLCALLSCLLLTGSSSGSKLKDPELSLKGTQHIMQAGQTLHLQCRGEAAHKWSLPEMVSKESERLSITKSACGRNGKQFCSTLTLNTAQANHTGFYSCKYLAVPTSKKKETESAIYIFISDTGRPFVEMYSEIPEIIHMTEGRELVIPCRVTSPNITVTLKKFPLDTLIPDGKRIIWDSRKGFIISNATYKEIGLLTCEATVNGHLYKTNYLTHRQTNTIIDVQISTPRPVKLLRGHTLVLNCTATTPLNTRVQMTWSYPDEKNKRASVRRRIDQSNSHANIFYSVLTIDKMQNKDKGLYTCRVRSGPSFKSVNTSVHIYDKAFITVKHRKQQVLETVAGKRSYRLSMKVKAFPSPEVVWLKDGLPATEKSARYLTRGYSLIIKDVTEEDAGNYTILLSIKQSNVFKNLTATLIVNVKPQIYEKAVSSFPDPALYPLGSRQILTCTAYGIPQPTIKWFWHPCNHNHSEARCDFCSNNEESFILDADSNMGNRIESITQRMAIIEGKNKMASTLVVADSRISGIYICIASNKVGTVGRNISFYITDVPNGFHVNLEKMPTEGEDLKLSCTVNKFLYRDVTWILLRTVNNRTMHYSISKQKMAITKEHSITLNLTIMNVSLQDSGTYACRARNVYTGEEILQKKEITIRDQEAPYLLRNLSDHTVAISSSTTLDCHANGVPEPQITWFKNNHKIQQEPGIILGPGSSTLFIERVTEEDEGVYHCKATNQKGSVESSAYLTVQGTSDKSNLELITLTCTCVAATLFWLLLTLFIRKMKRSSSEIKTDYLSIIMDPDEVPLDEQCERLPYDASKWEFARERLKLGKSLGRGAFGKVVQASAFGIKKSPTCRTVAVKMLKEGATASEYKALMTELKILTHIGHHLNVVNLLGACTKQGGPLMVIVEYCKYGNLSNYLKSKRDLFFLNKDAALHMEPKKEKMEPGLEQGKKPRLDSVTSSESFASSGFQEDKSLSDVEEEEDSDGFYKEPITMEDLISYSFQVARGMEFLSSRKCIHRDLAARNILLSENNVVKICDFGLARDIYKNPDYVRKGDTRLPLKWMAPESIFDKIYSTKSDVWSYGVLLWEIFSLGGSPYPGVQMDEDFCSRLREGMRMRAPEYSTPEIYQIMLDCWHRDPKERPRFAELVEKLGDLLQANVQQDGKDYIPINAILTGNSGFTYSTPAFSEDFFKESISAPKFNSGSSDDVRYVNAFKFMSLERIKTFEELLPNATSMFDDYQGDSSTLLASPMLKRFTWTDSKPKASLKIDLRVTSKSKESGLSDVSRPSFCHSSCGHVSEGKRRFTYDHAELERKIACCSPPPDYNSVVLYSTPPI

Turning to `COc1cc2c(Nc3c(Cl)ccc4c3OCO4)ncnc2cc1OCc1ccnc(C#N)c1` [4-[({4-[(5-chloro-2H-1,3-benzodioxol-4-yl)amino]-6-methoxyquinazolin-7-yl}oxy)methyl]pyridine-2-carbonitrile], the IC50 in assay [1] and in assay [2] was over 100 µM in each case.
For the compound `COc1ccc(Cl)c(Nc2ncnc3cc(OCC4CCN(C)CC4)c(OC)cc23)c1` [AZD0530 analogue 35], the IC50 was determined as 0.01 µM in assay [3] and 0.67 µM in assay [4].
With `COc1cc2c(Nc3c(Cl)ccc4c3OCO4)ncnc2cc1OCCCN1CCCCC1` [BMCL182776 Compound 1], the IC50 in assay [5] was determined as 21.7 µM.
